# Where “and” joins values, the source holds several entries; their conditions need not be identical. Equal entries are not always repeated.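 Step 1: Grow cells in 96-well plates. Step 2: Expose to compound for 48 hours at 5 concentrations. Step 3: Interpolate endpoints linearly; if unreached, use highest concentration. Here, GI50 denotes the concentration required for 50% inhibition of growth. TGI marks complete inhibition of growth.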
# Tests used:
# Test in all cases: DTP human tumour cell line panel, 48 h
# 786-0 renal = tested on: 786-0 renal
# ACHN renal = tested on: ACHN renal
# DU-145 prostate = tested on: DU-145 prostate
# HOP-62 NSCLC = tested on: HOP-62 NSCLC
# LOX IMVI melanoma = tested on: LOX IMVI melanoma
# M14 melanoma = tested on: M14 melanoma
# OVCAR-3 ovarian = tested on: OVCAR-3 ovarian
# OVCAR-5 ovarian = tested on: OVCAR-5 ovarian
# OVCAR-8 ovarian = tested on: OVCAR-8 ovarian
# SK-MEL-2 melanoma = tested on: SK-MEL-2 melanoma
Compound,TGI (786-0 renal),TGI (ACHN renal),TGI (DU-145 prostate),TGI (HOP-62 NSCLC),TGI (LOX IMVI melanoma),TGI (M14 melanoma),TGI (OVCAR-3 ovarian),TGI (OVCAR-5 ovarian),TGI (OVCAR-8 ovarian),TGI (SK-MEL-2 melanoma),GI50 (OVCAR-8 ovarian)
CC[C@@]1(O)C(=O)OCc2c1cc1n(c2=O)Cc2c-1nc1ccccc1c2/C=N\NC(=O)C1CCCN1 (stereo partly drawn),8.01 µM,1.02 µM,> 100 µM,2.16 µM,2.67 µM,5.81 µM,43.5 µM,> 73.2 µM,10.9 µM,58.4 µM,
CCN(CC)CCCNc1ccc2nc(C)n3c4ccc(O)cc4c(=O)c1c23,16.8 µM,15.2 µM,19.7 µM,19.1 µM,3.71 µM,21.5 µM,21.6 µM,20.2 µM,19.6 µM,21.3 µM,
Cc1cnc2sn(-c3ccc([N+](=O)[O-])cc3)c(=O)c2c1,> 100 µM,> 100 µM,> 100 µM,52.4 µM,> 100 µM,> 100 µM,> 100 µM,> 100 µM,> 100 µM,> 100 µM,
O=C(OC1C2OC(=O)c3cc(O)c(O)c(O)c3Oc3cc4c(c(O)c3O)-c3c(cc(O)c(O)c3O)C(=O)OCC3OC(O)C(OC(=O)c5cc(O)c(O)c(O)c5Oc5cc6c(c(O)c5O)-c5c(cc(O)c(O)c5O)C(=O)OC1C(COC6=O)OC2O)C(OC(=O)c1cc(O)c(O)c(O)c1)C3OC4=O)c1cc(O)c(O)c(O)c1 (stereo not drawn),47.1 µM,> 100 µM,> 100 µM,54.3 µM,59.7 µM,> 100 µM,> 100 µM,> 100 µM,81.3 µM,,
Cc1ccc(NC=O)c(-c2c(N)[nH]c(=S)[nH]c2=O)c1,> 100 µM,> 100 µM,> 100 µM,> 100 µM,> 100 µM,> 100 µM,> 100 µM,> 100 µM,> 100 µM,> 100 µM,
CC(=O)OC12C3C4C1C1C2C3C41OC(C)=O (stereo not drawn),> 100 µM,> 100 µM,> 100 µM,> 100 µM,> 100 µM,> 100 µM,> 100 µM,> 100 µM,> 100 µM,> 100 µM,
CO/N=C(/C)c1cccc(Nc2nc3ccccc3c3[nH]c4ccccc4c23)c1,21.5 µM,12.8 µM,25 µM,21.7 µM,25 µM,21.1 µM,20.6 µM,22.3 µM,20.9 µM,23.5 µM,
CCCC(CCC(N)=O)(CCC(N)=O)[N+](=O)[O-],> 100 µM,> 100 µM,> 100 µM,,,> 100 µM,,> 100 µM,> 100 µM,> 100 µM,
CC(C)(C)OC(=O)N(CCCCNC(=O)OCc1ccccc1)CCCNC(=O)OCc1ccccc1,> 100 µM,22.6 µM,> 100 µM,> 100 µM,,> 100 µM,> 100 µM,> 100 µM,> 100 µM,> 100 µM,
CCP(=O)(CC)C(Cl)Cl,,> 100 µM,> 100 µM,> 100 µM,> 100 µM,> 100 µM,> 100 µM,> 100 µM,> 100 µM,> 100 µM,
COc1ccc2nc(-c3ccccc3)cc(OCC(=O)O)c2c1,> 100 µM,> 100 µM,> 100 µM,> 100 µM,> 100 µM,> 100 µM,> 100 µM,> 100 µM,> 100 µM,> 100 µM,
CN(Cc1cnc2nc(N)nc(N)c2n1)c1ccc(C(=O)N[C@@H](CCC(=O)O)C(=O)O)cc1,> 250 µM,> 233 µM,> 250 µM,,> 250 µM,240 µM and > 250 µM,217 µM and > 250 µM,207 µM and > 250 µM,> 250 µM,> 250 µM,0.0703 µM and 0.488 µM
COc1ccc(-n2c(N)c(C#N)[nH]c2=O)cc1,> 10 µM,> 10 µM,> 10 µM,> 10 µM,3.98 µM,> 10 µM,> 10 µM,> 10 µM,> 10 µM,> 10 µM,
CN(C)c1ccc(C=NCC2CCCN3CCCCC23)cc1 (stereo not drawn),> 100 µM,> 100 µM,> 100 µM,> 100 µM,> 100 µM,> 100 µM,> 100 µM,> 100 µM,> 100 µM,,
Cc1ccc2c(c1)C(=O)c1nc(C)ccc1C2=O,> 100 µM,> 100 µM,> 100 µM,> 100 µM,> 100 µM,> 100 µM,> 100 µM,> 100 µM,97.5 µM,> 100 µM,
O=C(/C=C/c1cccc(Oc2ccccc2)c1)NCc1ccc(C(=O)NCc2ccccc2)cc1,> 100 µM,> 100 µM,> 100 µM,18.8 µM,> 100 µM,> 100 µM,> 100 µM,> 100 µM,> 100 µM,> 100 µM,
CC1=NC2=Nc3nc(C)cc[n+]3CN2C=C1,> 100 µM,> 100 µM,> 100 µM,> 100 µM,> 100 µM,> 100 µM,> 100 µM,> 100 µM,> 100 µM,> 100 µM,
CC(NC(=O)NC(C)(C)C)NC(=O)C(N)CC(=O)O (stereo not drawn),> 100 µM,> 100 µM,> 100 µM,> 100 µM,> 100 µM,> 100 µM,> 100 µM,> 100 µM,> 100 µM,> 100 µM,
Nc1[nH]nc(Nc2ccc(Cl)cc2)c1P(=O)(c1ccccc1)c1ccccc1,,> 100 µM,86.5 µM,49.1 µM,> 100 µM,54.6 µM,41.5 µM,45.6 µM,46.4 µM,43.1 µM,
CCOC(=O)c1nnsc1N/N=C\c1ccc([N+](=O)[O-])cc1,> 100 µM,> 100 µM,> 100 µM,> 100 µM,,> 100 µM,> 100 µM,> 100 µM,> 100 µM,> 100 µM,
O=C(/C=C/c1ccccc1)CSc1ncn[nH]1,> 100 µM,> 100 µM,> 100 µM,> 100 µM,,> 100 µM,> 100 µM,> 100 µM,> 100 µM,> 100 µM,
C/C(=N\N=C(\N)SB(F)F)c1ccc2ccccc2c1,> 100 µM,> 100 µM,> 100 µM,,> 100 µM,> 100 µM,,> 100 µM,> 100 µM,> 100 µM,

# Reference: PubChem BioAssay (NCI)
